ChEMBL document CHEMBL1136541, “D-Phe-Pro-Arg type thrombin inhibitors: unexpected selectivity by modification of the P1 moiety” (Bioorg Med Chem Lett, 2003)

Target: T1, Serine protease 1 (Bos taurus, UniProt P00760)
T1 sequence (P00760 whole entry): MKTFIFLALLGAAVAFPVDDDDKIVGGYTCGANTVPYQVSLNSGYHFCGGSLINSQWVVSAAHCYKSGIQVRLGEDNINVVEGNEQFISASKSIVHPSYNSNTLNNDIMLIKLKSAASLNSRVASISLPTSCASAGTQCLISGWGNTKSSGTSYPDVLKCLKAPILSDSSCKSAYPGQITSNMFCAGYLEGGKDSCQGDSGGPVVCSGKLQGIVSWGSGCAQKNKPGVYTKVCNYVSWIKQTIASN
Experiment: In vitro inhibitory activity against trypsin

IC50 [nM]	Structure (SMILES)
16	Cn1c(CNC(=O)[C@@H]2C=CCN2C(=O)[C@@H](CC2CCCCC2)NCC(=O)O)ccc1C(=N)N
306	Cn1cc(CNC(=O)[C@@H]2C=CCN2C(=O)[C@@H](CC2CCCCC2)NCC(=O)O)cc1C(=N)N
